{"source": "patent US20260263442A1", "about": "“METHOD FOR TREATING L-DOPA-INDUCED DYSKINESIA USING BEFIRADOL” (Neurolixis, Inc., priority 2023, published 2026)", "origin": "cited, not measured here", "key": {"[1]": {"test_system": "striatal 5-HT1A receptors", "details": "striatum of rat, cat, macaque and human; cited from earlier work"}, "[2]": {"test_system": "L-DOPA-induced dyskinesia in Parkinson's patients", "details": "human, in vivo; cited from earlier work"}, "[3]": {"test_system": "L-DOPA-induced dyskinesia in Parkinson's patients", "details": "cited from earlier work; for Efficacy to alleviate LID, clinically tested / Effect on motor symptoms of Parkinson's disease: human, in vivo"}}}
{"smiles": "Cc1ccc(CNCC2(F)CCN(C(=O)c3ccc([18F])c(Cl)c3)CC2)nc1", "note": "[^18F-NLX-112]", "values": [{"measurement": "Labelling of 5-HT1A receptors, PET brain imaging", "setting": "[1]", "result": "consistently labelled striatal 5-HT1A receptors"}]}
{"smiles": "NC12CC3CC(CC(C3)C1)C2", "note": "[amantadine]", "values": [{"measurement": "Proportion of patients who are non-responders", "setting": "[2]", "result": "about ⅓"}, {"measurement": "Side effects limiting use", "setting": "[2]", "result": "hallucinations, confusion, leg edema, orthostatic hypotension"}]}
{"smiles": "O=C1CC2(CCCC2)CC(=O)N1CCCCN1CCN(c2ncccn2)CC1", "note": "[buspirone]", "values": [{"measurement": "Efficacy to alleviate LID, clinically tested", "setting": "[3]", "result": "limited efficacy"}]}
{"smiles": "c1cc2c(c(N3CCNCC3)c1)OCCO2", "note": "[eltoprazine]", "values": [{"measurement": "Efficacy to alleviate LID, clinically tested", "setting": "[3]", "result": "limited efficacy"}]}
{"smiles": "Fc1ccc(-c2cncc(CNC[C@H]3CCc4ccccc4O3)c2)cc1", "note": "[sarizotan]", "values": [{"measurement": "Effect on L-DOPA efficacy, phase 2b study", "setting": "[3]; Parkinson's patients with troublesome L-DOPA-induced dyskinesia", "result": "two of the three tested doses significantly reduced L-DOPA efficacy"}, {"measurement": "Effect on motor symptoms of Parkinson's disease", "setting": "[3]", "result": "no beneficial effect or even the opposite effect"}, {"measurement": "Efficacy to alleviate LID, clinically tested", "setting": "[3]", "result": "limited efficacy"}, {"measurement": "Reduction of LID, two phase 3 clinical trials", "setting": "[3]; third (and lowest) dose", "result": "ineffective in reducing LID"}]}
{"smiles": "O=C1[C@@H]2[C@H]3CC[C@H](C3)[C@@H]2C(=O)N1CCCCN1CCN(c2ncccn2)CC1", "note": "[tandospirone]", "values": [{"measurement": "Effect on motor symptoms of Parkinson's disease", "setting": "[3]", "result": "no beneficial effect or even the opposite effect"}, {"measurement": "Efficacy to alleviate LID, clinically tested", "setting": "[3]", "result": "limited efficacy"}]}
